Here are results for four compounds from patent publication US20240251788A1, “HERBICIDE/SAFENER COMBINATION BASED ON SAFENERS FROM THE CLASS OF SUBSTITUTED [(1,5-DIPHENYL-1H-1,2,4-TRIAZOL-3-YL)OXY]ACETIC ACIDS AND THEIR SALTS” (Bayer Aktiengesellschaft, priority 2021, published 2024).

In series [1] the test system is summer wheat crop plant (TRZAS; cv. Triso). The series can be described thus: Reduction in herbicide damage to summer wheat by safener, greenhouse post-emergence application, visual scoring. The series is classed as in vivo. Conditions: summer wheat (TRZAS), without safener. As to the method:
(§1) The seeds of the crop plants to be treated are laid out in soil in woodfiber pots (diameter ˜ 7 cm), covered with soil and grown in a greenhouse under good conditions for germination and growth. The trial plants were treated at the early leaf stage (BBCH10-BBCH12).
The herbicides used (component B) were used in the following formulations: • B2.81: WP • B2.85: WP • B2.92: WP • Cinmethylin: EC • Clomazone: WP • Ethofumesate: WP • Flufenacet: SC • Pinoxaden: WP • Saflufenacil: WP • Bicyclopyrone: WP • Picloram: WP • Metazachlor: SC • Flumioxazin: WP • Glyphosate potassium salt: SL • Topramezone: WP
(§2) The dose of the respective herbicides was chosen here such that it causes an average degree of visually apparent damage (min. 20%, max. 75%) compared to untreated crop plants at the evaluation time on a control group of crop plants without safener treatment that were included in the same trial.
(§3) In the respective herbicide/safener combinations, the safeners (component A) in the form of wettable powders (WP) were added in the dose specified; in these cases, herbicide and safener are thus applied as a mixture.
(§4) Application was effected in each case on to the above-ground parts of the plant, at a water application rate corresponding to 300 l/ha and with addition of wetting agent (Mero, 1.5 l/h a).
In the applications that contained pinoxaden, bicyclopyrone or topramezone, the herbicidal effect was enhanced by additionally adding ammonium sulfate (2 kg/ha).
(§5) After application, the plants were cultivated under good growth conditions in a greenhouse. On account of the different mechanisms of action of the herbicides used, the damaging effect of the herbicides was fully manifested at different times depending on the herbicide, and this in turn forms the basis for assessment of the safener action in the mixtures. Therefore, the damage was scored visually, depending on the herbicide/mixture, between 11 and 21 days after application.
(§6) The damage effect was assessed visually on a scale of 0-100% by comparison with untreated control plants, and averaged over 2 repeats per treatment.

Series [2] deals with summer barley crop plant (HORVS: cv. Quench). The series can be described thus: Reduction in herbicide damage to summer barley by safener, greenhouse post-emergence application, visual scoring. It counts as in vivo. The conditions noted are these: summer barley (HORVS), without safener. As to the method: as §1
The herbicides used (component B) were used in the following formulations: • B2.81: WP • B2.85: WP • B2.92: WP • Clomazone: WP • Ethofumesate: WP • Flufenacet: SC • Fluroxypyr: EC • Saflufenacil: WP • Thiencarbazone-methyl: WP • Iodosulfuron-methyl-sodium: WP • Bifenox: WP • Glyphosate potassium salt: SL • Topramezone: WP
as §2, §3, §4
In the applications that contained pinoxaden or topramezone, the herbicidal effect was enhanced by additionally adding ammonium sulfate (2 kg/ha).
as §5, §6

For the compound `CCOC1Oc2ccc(OS(C)(=O)=O)cc2C1(C)C` (stereo not drawn) [Compound B5.21, ethofumesate, reference compound], the “Damage to the plant by the herbicide (in %)” value (from here on “Damage to the plant … (in %)”) turned out to be 70% in series [1] (herbicide dose 2000 g a.i./ha) and 60% in series [2] (herbicide dose 2000 g a.i./ha).
Take `O=C(O)CNCP(=O)(O)O` [Compound B7.5, glyphosate, reference compound]: the “Damage to the plant … (in %)” value in series [1] (herbicide dose 400 g a.i./ha) amounted to 45%; in series [2] (herbicide dose 400 g a.i./ha) it was 60%.
Turning to `CC(C)N(C)S(=O)(=O)NC(=O)c1cc(-n2c(=O)cc(C(F)(F)F)n(C)c2=O)c(F)cc1Cl` [Compound B9.10, saflufenacil, reference compound], the entries for the “Damage to the plant … (in %)” value in series [1] (herbicide dose 10 g a.i./ha), in series [1] (herbicide dose 20 g a.i./ha) and in series [2] (herbicide dose 20 g a.i./ha) were 35%, 40% and 40%, respectively.
Turning to “topramezone [Compound B4.28, reference compound]”, the figures for the “Damage to the plant … (in %)” value in series [1] (herbicide dose 300 g a.i./ha) and in series [2] (herbicide dose 300 g a.i./ha) were 40% and 50%, respectively.
